Measurements as given in PubChem BioAssay (NCI).
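1) Cells in 96-well plates. 2) Compound, 48 h, 5 concentrations. 3) Linear interpolation between surrounding doses. 4) Unreached endpoint = highest concentration. TGI: total growth inhibition.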

What was measured:
Assay in all cases: NCI anticancer screen, dose series, 48 h
[1] = tested on: UACC-257 melanoma
[2] = tested on: SF-295 CNS
[3] = tested on: U251 CNS
[4] = tested on: UACC-62 melanoma
[5] = tested on: MDA-N
[6] = tested on: HT29 colon
[7] = tested on: HS 578T breast
[8] = tested on: RXF 393 renal
[9] = tested on: HL-60(TB) leukemia
[10] = tested on: NCI-H23 lung
[11] = tested on: MOLT-4 leukemia
[12] = tested on: PC-3 prostate
[13] = tested on: MDA-MB-231 breast
[14] = tested on: BT-549 breast
[15] = tested on: DU-145 prostate
[16] = tested on: SR leukemia
[17] = tested on: CCRF-CEM leukemia
[18] = tested on: T-47D breast
[19] = tested on: HOP-92 NSCLC

Row | SMILES | TGI [1] [µM] | TGI [2] [µM] | TGI [3] [µM] | TGI [4] [µM] | TGI [5] [µM] | TGI [6] [µM] | TGI [7] [µM] | TGI [8] [µM] | TGI [9] [µM] | TGI [10] [µM] | TGI [11] [µM] | TGI [12] [µM] | TGI [13] [µM] | TGI [14] [µM] | TGI [15] [µM] | TGI [16] [µM] | TGI [17] [µM] | TGI [18] [µM] | TGI [19] [µM]
1 | c1ccc(-c2cc(-c3ccncc3)cc(-c3ccncc3)n2)cc1 | > 100 | > 100 | > 100 | > 100 | > 100 | > 100 | > 100 | > 100 | > 100 | > 100 | > 100 | > 100 | > 100 | > 100 | > 100 | > 100 | > 100 | > 100 | 
2 | CCCNCC(O)CNc1ccc(NCC(O)CNCCC)c2c1C(=O)c1ccccc1C2=O (stereo unspecified) | 17.6 |  | 9.02 | 4.95 | 11.7 | 7.69 | 16.6 |  | 18.9 | 12.2 | 7.6 | 4.7 | 10.1 | 6.99 | 20.2 | 11 | 4.35 | 14.6 | 6.81
3 | CO[C@H]1O[C@@H]2OC3(C)CCC4[C@H](C)CCC([C@H]1C)[C@]42OO3 (stereo partly specified) | > 100 | > 100 | > 100 | > 100 | > 100 | > 100 | > 100 | > 100 | 46.7 | > 100 | > 100 | > 100 | > 100 |  | > 100 | > 100 | > 100 | > 100 | > 100
4 | CCN(CC)C(=S)N/N=C/c1cc(OC)ccc1O | > 100 | > 100 | > 100 | 21.6 | > 100 | > 100 | > 100 | > 100 | 7.44 | > 100 | 28.6 | > 100 | > 100 | > 100 | > 100 | 8.9 | 5.71 | > 100 | 
5 | Cc1[nH]c2nc3c(ncn3COCCO)c(=O)n2c1C(c1ccccc1)(c1ccccc1)c1ccccc1 | 27.4 | 34.2 | 28 | 24 | 29.2 | 24.2 | > 91.2 | 26.2 | 44.4 | 23.1 | 24.3 | 26 | 28.3 | 2.22 | 26.2 |  | > 52.9 | 29.7 | 31.8
6 | O=C1Nc2ccccc2/C1=C\c1c(-c2ccccc2)nc2n1CCS2 | 45.9 | 48.6 | 45.3 | 27.4 | 65 | 39.9 | 75.2 | 47.2 | 42.3 | 66.3 | 81 | 48.3 | 47 | 43.7 | 40.7 |  | > 100 | 76.8 | > 100
7 | COc1ccc2c(c1)-c1nc(=O)n(CCCN(C)C)c3ccc([N+](=O)[O-])c(c13)N2 | 6.85 | 20.8 | 9.03 | 25.2 | 19.2 | 12.2 | 4.99 |  | 4.39 | 4.5 | 0.841 | 20.9 | 2.09 | 16.8 | 17.1 | 2.44 | 3.87 | 32.2 | 8.53
8 | Nc1nc(N)c2ncn(-c3ccccc3)c2n1 | > 100 | > 100 | > 100 | > 100 | > 100 | > 100 | > 100 | > 100 |  | > 100 | > 100 | > 100 | > 100 | > 100 | > 100 |  | > 100 | > 100 | > 100
9 | Fc1cccc(C2SCc3nc4cc5ccccc5cc4n32)c1 (stereo unspecified) | > 100 | > 100 | > 100 | > 100 | > 100 | > 100 | > 100 | > 100 |  | > 100 | > 100 | > 100 | > 100 | > 100 | > 100 | > 100 | > 100 | > 100 | > 100
10 | CC[C@@H]1CC[C@@H]2[C@H](CC[C@]3(C)[C@@H](OC(C)=O)CC[C@@H]23)[C@H]1C(=O)OC | 54.3 | 46.6 | 43.3 | 49.4 | 41.4 | 67.2 | > 100 | 49.8 | 31.3 | 59.6 | 42 | 67.3 | 46 | > 100 | 86.1 |  | 47.9 | 66.8 | 37.3
11 | Cc1cnc2c(c1)C(=O)N(c1ccc([N+](=O)[O-])cc1)S2(=O)=O | > 100 | > 100 | > 100 | > 100 | > 100 | > 100 | > 100 |  | > 100 | > 100 | > 100 | > 100 | > 100 | > 100 | > 100 | 99.2 | > 100 | > 100 | > 100
12 | c1ccc2nn(C3CCCO3)nc2c1 (stereo unspecified) | > 100 | > 100 | > 100 | > 100 | > 100 | > 100 | > 100 | > 100 | > 100 | > 100 | > 100 | > 100 | > 100 | > 100 | > 100 |  | > 100 | > 100 | 
13 | C(=N\NC1=NCCN1)/c1cccc2cc3ccncc3nc12 | 24.6 | 14.5 | 4 | 31.4 | 11 | 10.5 | 61.3 | 13.2 | 2.76 | 25.5 | 10.8 | 13.7 | 6.13 | 29.4 | 19.9 |  | 3.8 | 12.7 | 6.4
